Laboratory results reported in the NIST ThermoML archive (doi:10.1016/j.tca.2012.10.004).

Experiments:
[1] = relative permittivity at zero frequency (dimensionless); xn = mol fraction of the nth substance listed; details: 101 kPa, Liquid, Coaxial cylinder capacitor
[2] = refractive index (Na D-line) (dimensionless); xn = mol fraction of the nth substance listed; details: 101 kPa, Liquid, Standard Abbe refractometry

CN(CCO)CCO [N-methyldiethanolamine] + O=S1(=O)CCCC1
Details	refractive index, [2]	relative permittivity at zero frequency, [1]
293.15 K, x1 = 0.1001	1.48265	40.8
293.15 K, x1 = 0.2012	1.48037	38.3
293.15 K, x1 = 0.2999	1.47845	35.5
293.15 K, x1 = 0.4003	1.4766	33.5
293.15 K, x1 = 0.5005	1.47489	31.7
293.15 K, x1 = 0.6	1.47343	30.2
293.15 K, x1 = 0.7002	1.47207	28.4
293.15 K, x1 = 0.8011	1.47093	26.6
293.15 K, x1 = 0.8998	1.47017	24.6
293.15 K, x1 = 1	1.46935	22.9
298.15 K, x1 = 0.1001	1.48095	40.1
298.15 K, x1 = 0.2012	1.47872	37.6
298.15 K, x1 = 0.2999	1.47672	34.8
298.15 K, x1 = 0.4003	1.47488	32.8
298.15 K, x1 = 0.5005	1.47316	31
298.15 K, x1 = 0.6	1.47164	29.5
298.15 K, x1 = 0.7002	1.47023	27.7
298.15 K, x1 = 0.8011	1.469	26
298.15 K, x1 = 0.8998	1.46802	24.1
298.15 K, x1 = 1	1.46724	22.4
303.15 K, x1 = 0.1001	1.47886	39.4
303.15 K, x1 = 0.2012	1.4767	36.9
303.15 K, x1 = 0.2999	1.47473	34.1
303.15 K, x1 = 0.4003	1.47288	32.1
303.15 K, x1 = 0.5005	1.47124	30.3
303.15 K, x1 = 0.6	1.46976	28.8
303.15 K, x1 = 0.7002	1.46844	27
303.15 K, x1 = 0.8011	1.46717	25.3
303.15 K, x1 = 0.8998	1.46615	23.6
303.15 K, x1 = 1	1.46532	21.8
308.15 K, x1 = 0.1001	1.47712	38.7
308.15 K, x1 = 0.2012	1.47488	36.1
308.15 K, x1 = 0.2999	1.47281	33.4
308.15 K, x1 = 0.4003	1.47099	31.3
308.15 K, x1 = 0.5005	1.46931	29.5
308.15 K, x1 = 0.6	1.46777	28.1
308.15 K, x1 = 0.7002	1.46639	26.3
308.15 K, x1 = 0.8011	1.46513	24.6
308.15 K, x1 = 0.8998	1.46413	22.9
308.15 K, x1 = 1	1.4631	21.3
313.15 K, x1 = 0.1001	1.47549	38
313.15 K, x1 = 0.2012	1.47327	35.5
313.15 K, x1 = 0.2999	1.47109	32.7
313.15 K, x1 = 0.4003	1.46919	30.6
313.15 K, x1 = 0.5005	1.46741	28.7
313.15 K, x1 = 0.6	1.46584	27.4
313.15 K, x1 = 0.7002	1.46442	25.6
313.15 K, x1 = 0.8011	1.46301	24
313.15 K, x1 = 0.8998	1.46184	22.2
313.15 K, x1 = 1	1.46074	20.8
318.15 K, x1 = 0.1001	1.47376	37.4
318.15 K, x1 = 0.2012	1.47154	34.6
318.15 K, x1 = 0.2999	1.46941	32
318.15 K, x1 = 0.4003	1.46751	29.9
318.15 K, x1 = 0.5005	1.46573	28
318.15 K, x1 = 0.6	1.46414	26.7
318.15 K, x1 = 0.7002	1.46267	24.9
318.15 K, x1 = 0.8011	1.46127	23.3
318.15 K, x1 = 0.8998	1.46005	21.7
318.15 K, x1 = 1	1.45892	20.3
323.15 K, x1 = 0.1001	1.47203	36.7
323.15 K, x1 = 0.2012	1.46976	33.9
323.15 K, x1 = 0.2999	1.46769	31.3
323.15 K, x1 = 0.4003	1.46581	29.2
323.15 K, x1 = 0.5005	1.46403	27.3
323.15 K, x1 = 0.6	1.46242	26
323.15 K, x1 = 0.7002	1.46091	24.2
323.15 K, x1 = 0.8011	1.45949	22.7
323.15 K, x1 = 0.8998	1.45821	21.2
323.15 K, x1 = 1	1.45708	19.8
328.15 K, x1 = 0.1001	1.47021	36.2
328.15 K, x1 = 0.2012	1.46788	33.2
328.15 K, x1 = 0.2999	1.46596	30.6
328.15 K, x1 = 0.4003	1.46404	28.5
328.15 K, x1 = 0.5005	1.46226	26.5
328.15 K, x1 = 0.6	1.46061	25.2
328.15 K, x1 = 0.7002	1.45905	23.5
328.15 K, x1 = 0.8011	1.45761	22.1
328.15 K, x1 = 0.8998	1.45636	20.5
328.15 K, x1 = 1	1.45513	19.3
